In ChEMBL document CHEMBL1150761, “Additional biologically active constituents of the Chinese tallow tree (Sapium sebiferum)” (1988) one finds EC50 data, which are given here for six compounds.

This assay deals with P388. Nature of the assay: Cytotoxicity against mouse P388 cells. The following applies: read-out: ED50 (the source's name). The class given is functional.

Values after ≈ are worked out from the molar mass of the structure shown.

In the case of `CC1(C)CC(O)C[C@@]2(C)OC(=O)C=C12` (stereo partly specified), the EC50 is 15 µg/mL (≈ 76.4 µM).

For the compound `O=c1c(O[C@@H]2O[C@H](CO)[C@@H](O)[C@H](O)[C@H]2O)c(-c2ccc(O)cc2)oc2cc(O)cc(O)c12` [ASTRAGALIN], the EC50 stood at 8.2 µg/mL (≈ 18.3 µM).

In the case of `O=C(O)c1cc(O)c(O)c(O)c1` [GALLIC ACID], the EC50 was 0.7 µg/mL (≈ 4.11 µM). `O=c1c(O)c(-c2ccc(O)cc2)oc2cc(O)cc(O)c12` [KAEMPFEROL]: the EC50 was determined as 6.7 µg/mL (≈ 23.4 µM). Turning to `O=c1c(O)c(-c2ccc(O)c(O)c2)oc2cc(O)cc(O)c12` [QUERCETIN], the EC50 was found to be 40 µg/mL (≈ 132 µM).

As to `CC[C@H](CC[C@@H](C)[C@H]1CC[C@H]2[C@@H]3CC=C4C[C@@H](O[C@@H]5O[C@H](CO)[C@@H](O)[C@H](O)[C@H]5O)CC[C@]4(C)[C@H]3CC[C@]12C)C(C)C` [SITOGLUSIDE], the EC50 came out at 53 µg/mL (≈ 91.9 µM).
